Experimental findings from patent publication US7517874B2 (priority 2007, dated 2009) are described below.

Like-named read-outs stand apart in the source and are kept apart here.

One experiment deals with T1, rat CB2 receptor (rCB2) (Rattus norvegicus, UniProt Q9QZN9).
T1 sequence (Q9QZN9 1-360): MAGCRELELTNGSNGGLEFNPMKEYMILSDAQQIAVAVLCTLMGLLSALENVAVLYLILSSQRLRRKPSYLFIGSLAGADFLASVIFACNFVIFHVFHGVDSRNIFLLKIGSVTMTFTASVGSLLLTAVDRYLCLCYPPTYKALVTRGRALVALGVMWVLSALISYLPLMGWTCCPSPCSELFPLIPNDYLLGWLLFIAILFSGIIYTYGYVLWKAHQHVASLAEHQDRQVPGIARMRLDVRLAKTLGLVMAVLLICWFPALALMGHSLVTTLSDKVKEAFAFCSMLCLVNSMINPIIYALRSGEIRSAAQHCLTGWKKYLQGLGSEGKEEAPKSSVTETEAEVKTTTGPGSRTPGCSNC
The experiment can be described thus: cell-based. Format: cell-based. To be noted: for +/− RCB2: agonist or inverse agonist at rCB2. In outline: (§1)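 Agonism or inverse agonism was assessed as change in intracellular cAMP in CHO-K1 cells expressing human CB1 or rat CB2 (genomic DNA, pcDNA3.1).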

Experiment [1] deals with human CB1 receptor (hCB1) (Homo sapiens, UniProt P21554). The experiment can be described thus: cell-based. In kind it is cell-based. In outline: as §1
Setting [2] is: groups >100 nM-10 μM and >10 μM, cAMP, CHO-K1 hCB1, read-out: EC50 HCB1.

human CB1 receptor (hCB1), sequence (P21554 whole entry): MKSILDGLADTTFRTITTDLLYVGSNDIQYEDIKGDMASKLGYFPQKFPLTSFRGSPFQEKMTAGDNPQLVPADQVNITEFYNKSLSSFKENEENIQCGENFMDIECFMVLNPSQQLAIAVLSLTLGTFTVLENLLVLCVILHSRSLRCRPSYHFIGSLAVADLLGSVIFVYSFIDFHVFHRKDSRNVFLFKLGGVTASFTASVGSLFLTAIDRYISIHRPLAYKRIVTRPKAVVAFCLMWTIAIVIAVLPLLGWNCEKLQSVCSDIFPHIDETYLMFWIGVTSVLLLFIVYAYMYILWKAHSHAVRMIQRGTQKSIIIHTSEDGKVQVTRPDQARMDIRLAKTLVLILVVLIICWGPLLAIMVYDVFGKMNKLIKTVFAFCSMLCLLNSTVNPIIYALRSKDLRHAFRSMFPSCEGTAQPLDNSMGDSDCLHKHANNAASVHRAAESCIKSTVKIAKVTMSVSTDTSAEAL

As to `CC(C)CN1CCn2c(-c3ccccc3)nc(C(=O)N[C@@H](CO)C(C)(C)C)c2C1` [Compound 68, (R)-N-(1-hydroxy-3,3-dimethylbutan-2-yl)-7-isobutyl-3-phenyl-5,6,7,8-tetrahydroimidazo[1,5-a]pyrazine-1-carboxamide], the “+/− RCB2” value at rat CB2 receptor (rCB2) is “−”. In experiment [1], this compound came in with an EC50 of over 10000 nM.

Regarding `CN1CCn2c(-c3ccccc3)nc(C(=O)N3CCOCC3)c2C1` [Compound 69, (7-methyl-3-phenyl-5,6,7,8-tetrahydroimidazo[1,5-a]pyrazin-1-yl)(morpholino)methanone], the “+/− RCB2” value at rat CB2 receptor (rCB2) was “−”. Besides, the EC50 in experiment [1] (setting [2]) is over 10000 nM.

Consider `CC(C)CN1CCn2c(-c3ccccc3)nc(C(=O)N3CCOCC3)c2C1` [Compound 70, (7-isobutyl-3-phenyl-5,6,7,8-tetrahydroimidazo[1,5-a]pyrazin-1-yl)(morpholino)methanone], for which, on rat CB2 receptor (rCB2), the “+/− RCB2” value was “−”. Moreover, the EC50 in experiment [1] (setting [2]) was over 10000 nM.

With `CNC(=O)[C@@H](NC(=O)c1nc(-c2ccccc2)n2c1CN(Cc1cccn1C)CC2)C(C)(C)C` [Compound 71, (S)-N-(3,3-dimethyl-1-(methylamino)-1-oxobutan-2-yl)-7-((1-methyl-1H-pyrrol-2-yl)methyl)-3-phenyl-5,6,7,8-tetrahydroimidazo[1,5-a]pyrazine-1-carboxamide], the “+/− RCB2” value on rat CB2 receptor (rCB2) is recorded as “−”. Further, the 50% effective concentration (EC50) in experiment [1] is over 10000 nM.

Take `CNC(=O)[C@@H](NC(=O)c1nc(-c2ccccc2)n2c1CN(Cc1nccs1)CC2)C(C)(C)C` [Compound 72, (S)-N-(3,3-dimethyl-1-(methylamino)-1-oxobutan-2-yl)-3-phenyl-7-(thiazol-2-ylmethyl)-5,6,7,8-tetrahydroimidazo[1,5-a]pyrazine-1-carboxamide]: the EC50 (at rat CB2 receptor (rCB2); in experiment [1]) was over 10000 nM in each case.

Regarding `CNC(=O)[C@@H](NC(=O)c1nc(-c2csc3ccccc23)n2c1CN(C)CC2)C(C)(C)C` [Compound 75, (S)-3-(benzo[b]thiophen-3-yl)-N-(3,3-dimethyl-1-(methylamino)-1-oxobutan-2-yl)-7-methyl-5,6,7,8-tetrahydroimidazo[1,5-a]pyrazine-1-carboxamide], the “+/− RCB2” value at rat CB2 receptor (rCB2) is “+”. This compound had an EC50 in experiment [1] of over 10000 nM.

In the case of `CNC(=O)[C@@H](NC(=O)c1nc(-c2ccsc2)n2c1CN(Cc1cncnc1)CC2)C(C)(C)C` [Compound 76, (S)-N-(3,3-dimethyl-1-(methylamino)-1-oxobutan-2-yl)-7-(pyrimidin-5-ylmethyl)-3-(thiophen-3-yl)-5,6,7,8-tetrahydroimidazo[1,5-a]pyrazine-1-carboxamide], the “+/− RCB2” value on rat CB2 receptor (rCB2) is “+”. The EC50 in experiment [1] was over 10000 nM.

Take `CNC(=O)[C@H](C)NC(=O)c1nc(-c2ccccc2)n2c1CN(Cc1cncnc1)CC2` [Compound 77, (S)-N-(1-(methylamino)-1-oxopropan-2-yl)-3-phenyl-7-(pyrimidin-5-ylmethyl)-5,6,7,8-tetrahydroimidazo[1,5-a]pyrazine-1-carboxamide]: the EC50 (at rat CB2 receptor (rCB2); in experiment [1]) was over 10000 nM throughout.

Consider `CN1CCn2c(-c3ccccc3)nc(C(=O)N[C@H](C(=O)N(C)C)C(C)(C)C)c2C1` [Compound 79, (S)-N-(1-(dimethylamino)-3,3-dimethyl-1-oxobutan-2-yl)-7-methyl-3-phenyl-5,6,7,8-tetrahydroimidazo[1,5-a]pyrazine-1-carboxamide], for which, on rat CB2 receptor (rCB2), the “+/− RCB2” value was “−”. In addition, the EC50 in experiment [1] was over 10000 nM.

Regarding `CC(C)CN1CCn2c(-c3ccccc3)nc(C(=O)N[C@H](C(=O)N(C)C)C(C)(C)C)c2C1` [Compound 80, (S)-N-(1-(dimethylamino)-3,3-dimethyl-1-oxobutan-2-yl)-7-isobutyl-3-phenyl-5,6,7,8-tetrahydroimidazo[1,5-a]pyrazine-1-carboxamide], the “+/− RCB2” value on rat CB2 receptor (rCB2) is recorded as “−”. In experiment [1], the EC50 was over 10000 nM.

`CN1CCn2c(-c3ccccc3)nc(C(=O)NCC(C)(C)CO)c2C1` [Compound 82, N-(3-hydroxy-2,2-dimethylpropyl)-7-methyl-3-phenyl-5,6,7,8-tetrahydroimidazo[1,5-a]pyrazine-1-carboxamide]: the EC50 on rat CB2 receptor (rCB2) (groups >100 nM-10 μM and >10 μM, cAMP, CHO-K1 rCB2, read-out: EC50 RCB2) was over 10000 nM; in experiment [1] (setting [2]) it was over 10000 nM.

In the case of `CNC(=O)[C@@H](NC(=O)c1nc(-c2ccccc2)n2c1CN(C(C)C)CC2)C(C)(C)C` [Compound 85, (S)-N-(3,3-dimethyl-1-(methylamino)-1-oxobutan-2-yl)-7-isopropyl-3-phenyl-5,6,7,8-tetrahydroimidazo[1,5-a]pyrazine-1-carboxamide], on rat CB2 receptor (rCB2), the “+/− RCB2” value was “−”. The same compound displayed an EC50 in experiment [1] of over 10000 nM.

With `COC(=O)[C@@H](NC(=O)c1nc(-c2ccccc2)n2c1CN(C)CC2)C(C)(C)C` [Compound 86, (S)-methyl 3,3-dimethyl-2-(7-methyl-3-phenyl-5,6,7,8-tetrahydro-imidazo[1,5-a]pyrazine-1-carboxamido)butanoate], the “+/− RCB2” value on rat CB2 receptor (rCB2) is on record as “+”. Besides, the EC50 in experiment [1] is over 10000 nM.

`Cc1noc([C@@H](NC(=O)c2nc(-c3ccccc3)n3c2CN(C)CC3)C(C)(C)C)n1` [Compound 87, (S)-N-(2,2-dimethyl-1-(3-methyl-1,2,4-oxadiazol-5-yl)propyl)-7-methyl-3-phenyl-5,6,7,8-tetrahydroimidazo[1,5-a]pyrazine-1-carboxamide]: the “+/− RCB2” value at rat CB2 receptor (rCB2) is listed as “−”. In addition, in experiment [1], the EC50 was over 10000 nM.

With `Cc1noc([C@@H](NC(=O)c2nc(-c3ccccc3)n3c2CN(CC2CC2)CC3)C(C)(C)C)n1` [Compound 88, (S)-7-(cyclopropylmethyl)-N-(2,2-dimethyl-1-(3-methyl-1,2,4-oxadiazol-5-yl)propyl)-3-phenyl-5,6,7,8-tetrahydroimidazo[1,5-a]pyrazine-1-carboxamide], the “+/− RCB2” value on rat CB2 receptor (rCB2) is “−”. The compound also came in with an EC50 in experiment [1] of over 10000 nM.

With `Cc1noc([C@@H](NC(=O)c2nc(-c3ccccc3)n3c2CN(C(C)C)CC3)C(C)(C)C)n1` [Compound 89, (S)-N-(2,2-dimethyl-1-(3-methyl-1,2,4-oxadiazol-5-yl)propyl)-7-isopropyl-3-phenyl-5,6,7,8-tetrahydroimidazo[1,5-a]pyrazine-1-carboxamide], the “+/− RCB2” value on rat CB2 receptor (rCB2) was “−”. The compound also returned an EC50 in experiment [1] of over 10000 nM.

For `Cc1noc([C@@H](NC(=O)c2nc(-c3ccccc3)n3c2CN(CC(C)C)CC3)C(C)(C)C)n1` [Compound 90, (S)-N-(2,2-dimethyl-1-(3-methyl-1,2,4-oxadiazol-5-yl)propyl)-7-isobutyl-3-phenyl-5,6,7,8-tetrahydroimidazo[1,5-a]pyrazine-1-carboxamide], the “+/− RCB2” value on rat CB2 receptor (rCB2) is “−”. In experiment [1], this compound registered an EC50 of over 10000 nM.

Turning to `CNC(=O)[C@@H](NC(=O)c1nc(-c2ccccc2)n2c1CN(S(C)(=O)=O)CC2)C(C)(C)C` [Compound 92, (S)-N-(3,3-dimethyl-1-(methylamino)-1-oxobutan-2-yl)-7-(methylsulfonyl)-3-phenyl-5,6,7,8-tetrahydroimidazo[1,5-a]pyrazine-1-carboxamide], the “+/− RCB2” value on rat CB2 receptor (rCB2) was “−”. In experiment [1], this compound gave an EC50 of over 10000 nM.

Turning to `CNC(=O)[C@@H](NC(=O)c1nc(-c2ccccc2)n2c1CN(S(=O)(=O)c1ccc(F)cc1)CC2)C(C)(C)C` [Compound 93, (S)-N-(3,3-dimethyl-1-(methylamino)-1-oxobutan-2-yl)-7-(4-fluorophenylsulfonyl)-3-phenyl-5,6,7,8-tetrahydroimidazo[1,5-a]pyrazine-1-carboxamide], the “+/− RCB2” value on rat CB2 receptor (rCB2) is on record as “−”. The EC50 in experiment [1] was over 10000 nM.

For the compound `CNC(=O)[C@@H](NC(=O)c1nc(-c2ccccc2)n2c1CN(S(=O)(=O)C(C)C)CC2)C(C)(C)C` [Compound 94, (S)-N-(3,3-dimethyl-1-(methylamino)-1-oxobutan-2-yl)-7-(isopropylsulfonyl)-3-phenyl-5,6,7,8-tetrahydroimidazo[1,5-a]pyrazine-1-carboxamide], the “+/− RCB2” value on rat CB2 receptor (rCB2) is “−”. Further, the EC50 in experiment [1] was over 10000 nM.

For `CNC(=O)[C@@H](NC(=O)c1nc(-c2ccccc2)n2c1CN(S(=O)(=O)CC(C)C)CC2)C(C)(C)C` [Compound 95, (S)-N-(3,3-dimethyl-1-(methylamino)-1-oxobutan-2-yl)-7-(isobutylsulfonyl)-3-phenyl-5,6,7,8-tetrahydroimidazo[1,5-a]pyrazine-1-carboxamide], the “+/− RCB2” value on rat CB2 receptor (rCB2) was “−”. This compound also showed an EC50 in experiment [1] of over 10000 nM.

For `CNC(=O)[C@@H](NC(=O)c1nc(-c2ccccc2)n2c1CN(S(=O)(=O)c1ccccc1)CC2)C(C)(C)C` [Compound 96, (S)-N-(3,3-dimethyl-1-(methylamino)-1-oxobutan-2-yl)-3-phenyl-7-(phenylsulfonyl)-5,6,7,8-tetrahydroimidazo[1,5-a]pyrazine-1-carboxamide], the “+/− RCB2” value on rat CB2 receptor (rCB2) is given as “−”. Also, the EC50 in experiment [1] is over 10000 nM.

As to `CNC(=O)[C@@H](NC(=O)c1nc(-c2ccccc2)n2c1CN(S(=O)(=O)c1ccccc1[N+](=O)[O-])CC2)C(C)(C)C` [Compound 97, (S)-N-(3,3-dimethyl-1-(methylamino)-1-oxobutan-2-yl)-7-(2-nitrophenylsulfonyl)-3-phenyl-5,6,7,8-tetrahydroimidazo[1,5-a]pyrazine-1-carboxamide], at rat CB2 receptor (rCB2), the “+/− RCB2” value is “−”. The compound also gave a 50% effective concentration (EC50) in experiment [1] of over 10000 nM.
